The record followed here is ChEMBL document CHEMBL1777735, “Lipophilicity of acidic compounds: impact of ion pair partitioning on drug design” (Bioorg Med Chem Lett, 2011).

Structures are written as SMILES. Bounds are passed on as bounds.

One may read the logP as a log measure of how a compound divides between an organic and an aqueous phase. The logD is lipophilicity at a set pH, counting ionised and neutral species.

A short description of data set [1]: Plasma protein binding in human. Type of data set: ADME, cell-free. Particulars: read-out: PPB (converted).
The nature of data set [2]: Lipophilicity, log P of the compound. Format: physicochemical. The following applies: octanol/water.
Data set [3] in a line: 1-Octanol-water distribution coefficient, log D of the compound at pH 7.4 by shake-flask method. Format: physicochemical.
Data set [4] in a line: 1-Octanol-sodium citrate buffer distribution coefficient, log D of the compound at pH 5.5 by shake-flask method. Format: physicochemical.
[5] abbreviates: 1-octanol/sodium citrate buffer, read-out: logD.

As to `CCOC(=O)[C@H](CCc1ccccc1)N[C@@H](C)C(=O)N1[C@H](C(=O)O)C[C@@H]2CCC[C@@H]21`, the fraction unbound in data set [1] is 0.105.

`CN(C)S(=O)(=O)NC(=O)CCCc1c(-c2ccc(F)cc2)[nH]c2ccc(C#N)cc12` returned a logP in data set [2] of 2.6. For the same molecule, the logD in data set [3] worked out at 2.8; in data set [4] (octanol/water), 3.7. Besides, the fraction unbound in data set [1] was 0.004.

Regarding `CCOC(=O)[C@H](CCc1ccccc1)N[C@@H](C)C(=O)N1CCC[C@H]1C(=O)O`, the pH-dependent lipophilicity (logD) in data set [3] is -1.8; in data set [4] (setting [5]) it was -0.5. Also, the fraction unbound in data set [1] was 0.5.

Turning to `CC(=O)c1ccc(S(=O)(=O)NC(=O)NC2CCCCC2)cc1` [ACETOHEXAMIDE], the logP in data set [2] (read-out: logP) stood at 2.4. For the same molecule, the logD in data set [3] was -0.3; in data set [4] (setting [5]), 1.3. Also, in data set [1], the fraction unbound is 0.25.

`CCOC(=O)[C@H](CCc1ccccc1)N[C@H]1CCc2ccccc2N(CC(=O)O)C1=O` [BENAZEPRIL]: the fraction unbound in data set [1] was 0.041.

As to `CCCCNc1cc(C(=O)O)cc(S(N)(=O)=O)c1Oc1ccccc1` [BUMETANIDE], the logD was -0.6 in data set [3] and 1.1 in data set [4] (setting [5]). Besides, the fraction unbound in data set [1] was 0.016.

Regarding `O=C(O)CCCc1ccc(N(CCCl)CCCl)cc1` [CHLORAMBUCIL], the logD in data set [3] was 1.4; in data set [4] (setting [5]) it was 3.2. Moreover, the fraction unbound in data set [1] is 0.01.

Regarding `CCc1cccc2c3c([nH]c12)C(CC)(CC(=O)O)OCC3` (stereo unspecified) [ETODOLAC], in data set [1], the fraction unbound is 0.009.

Take `COc1ccc(Cl)cc1C(=O)NCCc1ccc(S(=O)(=O)NC(=O)NC2CCCCC2)cc1` [GLYBURIDE]: the logD stood at 2.2 in data set [3] and 3.5 in data set [4] (setting [5]). Also, in data set [1], the fraction unbound was 0.002.

Turning to `Cc1cc(SCc2sc(-c3ccc(C(F)(F)F)cc3)nc2C)ccc1OCC(=O)O` [GW501516], the logD was found to be 2.2 in data set [3] and 3.5 in data set [4] (setting [5]).

As to `COc1ccc2c(c1)c(CC(=O)O)c(C)n2C(=O)c1ccc(Cl)cc1` [INDOMETHACIN], in data set [2] (read-out: logP), the logP is 3.8. Further, the logD in data set [4] (setting [5]) worked out at 2.7.

Take `CCCCC1=NC2(CCCC2)C(=O)N1Cc1ccc(-c2ccccc2-c2nnn[nH]2)cc1` [IRBESARTAN]: the logD in data set [3] was found to be 0.9; in data set [4] (setting [5]) it was 2.4. Moreover, the fraction unbound in data set [1] was 0.02.

Turning to `O=C(c1ccccc1)c1ccc2n1CCC2C(=O)O` (stereo unspecified) [KETOROLAC], the logP in data set [2] (read-out: logP) stood at 2.7. Further, the logD in data set [3] is -1; in data set [4] (setting [5]), 0.6. Besides, the fraction unbound in data set [1] was 0.008.

For `CCCCc1nc(Cl)c(CO)n1Cc1ccc(-c2ccccc2-c2nn[nH]n2)cc1` [LOSARTAN], the logD was determined as 0.6 in data set [3] and 2.2 in data set [4] (setting [5]). Further, the fraction unbound in data set [1] is 0.02.

Turning to `O=C(O)CCc1nc(-c2ccccc2)c(-c2ccccc2)o1` [OXAPROZIN], in data set [2] (read-out: logP), the log partition coefficient (logP) was determined as 3.1. Also, the logD in data set [3] stood at 1; in data set [4] (setting [5]) it was 2.5. Besides, the fraction unbound in data set [1] is less than 0.001.

`CN1C(C(=O)Nc2ccccn2)=C(O)c2ccccc2S1(=O)=O` [PIROXICAM]: the pH-dependent lipophilicity (logD) was -0.3 in data set [3] and 1.1 in data set [4] (setting [5]). Besides, in data set [1], the fraction unbound was 0.007.

As to `O=C(O)CCn1c2c(c3ccccc31)C[C@H](NS(=O)(=O)c1ccc(F)cc1)CC2` [RAMATROBAN], the logP in data set [2] (read-out: logP) was found to be 3. Also, the logD in data set [3] stood at 0.5; in data set [4] (setting [5]), 2.3. For the same molecule, the fraction unbound in data set [1] is 0.025.

Turning to `CCOc1cc(CC(=O)N[C@@H](CC(C)C)c2ccccc2N2CCCCC2)ccc1C(=O)O` [REPAGLINIDE], the logD in data set [3] is 2.2; in data set [4] (setting [5]) it was 3.2. For the same molecule, the fraction unbound in data set [1] was 0.009.

As for `Cc1nnc(NS(=O)(=O)c2ccc(N)cc2)s1` [SULFAMETHIZOLE], the log distribution coefficient (logD) in data set [3] is -1.6; in data set [4] (setting [5]) it was 0. Besides, the fraction unbound in data set [1] is 0.065.

Take `Cc1ccc(S(=O)(=O)NC(=O)NN2CCCCCC2)cc1` [TOLAZAMIDE]: the logD in data set [3] was 0; in data set [4] (setting [5]) it was 1.2. For the same molecule, in data set [1], the fraction unbound was 0.06.

As to `Cc1ccc(C(=O)c2ccc(CC(=O)O)n2C)cc1` [TOLMETIN], in data set [2] (read-out: logP), the logP stood at 2.7. In addition, the logD in data set [3] is -1; in data set [4] (setting [5]), 0.8. In addition, in data set [1], the fraction unbound was 0.003.
